Measurements taken from patent US20240366602A1, “COMBINATION THERAPY OF APELIN RECEPTOR AGONIST AND GLP-1 RECEPTOR AGONIST FOR TREATING A DISEASE OR CONDITION ASSOCIATED WITH WEIGHT GAIN” (BioAge Labs, Inc., priority 2023, published 2024).

Tests used:
Diet-Induced Obese Mice = assay: Combination of BAL-1480 and tirzepatide in obese mice (Example 6); assay type: in vivo
Excerpt: To measure the effect of another APJ agonist, BAL-1480, compound 13 as described by Narayanan et al. in J. Med. Chem. 2021, 64, 3006-3025, on weight loss or body composition in Diet-Induced Obese Mice by GLP-1 receptor agonist tirzepatide.
Measurement used and justifications include: body weight, food intake, water intake, non-fasted blood glucose, and body composition by Echo-MRI.
C57BL/6 obese male mice from Jax and housed to 9-months old were fed with a lean control diet D12450B (10 kcal % fat) and a diet-induced obesity (DIO) diet D12492 (60 kcal % fat) (Research Diets, Inc.).
Male DIO mice were acclimated to a single house cage for two weeks. Body weight, morning non-fasted blood glucose, and body composition were measured for randomization. Target DIO weight range at randomization 51.4-67.5 g. After randomization, mice were given treatment as the following groups (All groups were paired with relative dosing s.c. vehicle (20 mM citrate buffer at pH 7.0, 4 mL/kg) or drinking water with addition of 5 mM Sucralose (5 mM Sucralose, pH 3) to insure water consumption despite possible taste alterations from drug).
Study groups • 0. Lean ctrl, n=7 • 1. DIO+VEH (vehicle), n=7 • 2. DIO+BAL-1480 (0.25 g/L in drug water), n=7 • 3. DIO+BAL-1480 (1 g/L in drug water), n=7 • 4. DIO+tirzepatide (10 nmol/kg), n=7 • 5. DIO+tirzepatide (10 nmol/kg)+BAL-1480 (0.25 g/L in drug water), n=7 • 6. DIO+tirzepatide (10 nmol/kg)+BAL-1480 (1 g/L in drug water), n=7
(0) Lean control: age matched lean mice control (5 mM sucralose water+vehicle, s.c., every 3 days); (1) DIO+VEH: diet-induced obese mice treated with vehicle control (5 mM sucralose water, pH 3+vehicle, s.c., every 3 days); (2) DIO+BAL-1480 (0.25 g/L in drug water): diet-induced obese mice treated with BAL-1480 at 0.25 g/L; (3) DIO+BAL-1480 (1 g/L in drug water): diet-induced obese mice treated with BAL-1480 at 1 g/L; (4) DIO+tirzepatide (10 nmol/kg): diet-induced obese mice treated with tirzepatide at 10 nmol/kg, s.c., every 3 days+5 mM sucralose water, pH 3; (5) DIO+tirzepatide (10 nmol/kg)+BAL-1480 (0.25 g/L in drug water): diet-induced obese mice treated with tirzepatide at 10 nmol/kg in combination with BAL-1480 at 0.25 g/L; (6) DIO+tirzepatide (10 nmol/kg)+BAL-1480 (1 g/L in drug water): diet-induced obese mice treated with tirzepatide at 10 nmol/kg in combination with BAL-1480 at 1 g/L.
Tirzepatide (hydrochloride) was purchased from MCE (Cat No. HY—P1731B/CS-0107005). Mw=4849.91, 10 nmol/kg=0.0485 mg/kg, 4 mL/kg, drug concentration: 0.012 mg/mL in s.c. vehicle, every 3 days. BAL-1480 0.25 g/L or 1 g/L was prepared in drinking water with 5 mM Sucralose, pH 3.
Body weight, food intake, water intake, body composition and morning non-fasted blood glucose were measured during the entire study. After 20 days of treatment and measurement, mice were taken down to harvest tissues for further downstream analysis. On the day of necropsy, blood plasma and organ/tissue samples were collected. Tissue samples were weighed and processed for further tests. Terminal cardiac blood samples (Heparin plasma) were obtained.
Data were expressed as mean±SEM and statistically analyzed by 1-way or 2-way ANOVA

[1] = test system: Diet-Induced Obese (DIO) mice; assay: Pilot study of BGE-105 in aged DIO mice treated with semaglutide (Example 1); assay type: in vivo
Excerpt: Endpoints and measurements used to assess effects included: • Body Weight, Clinical Evaluation & Body Condition Score; • Group Food Intake, Water Intake; • Fed Glucose; • Body composition by Echo-MRI; • Baseline and endpoint grid hang tests; and • Endpoint tissue harvest.
25-month-old (aged) C57BL/6 female mice were used in this study. Diet for 25-month-old C57BL/6 mice included lean control D12450B (10 kcal % fat), or a diet induced-obesity (DIO) diet D12492 (60 kcal % fat) (Research Diets, Inc.). The study duration was 37 days. Treatment started on Day 0 and ended on Day 35-36.
Semaglutide was purchased from MCE (Cat No. HY-114118/CS-0069903)
Mice from all Groups (1-5) were measured with fed glucose, and body weight and body composition for randomization.
Body weight, group food intake, group water intake, body composition and grid hang tests were measured and monitored during the study.
On the day of necropsy, blood plasma and tissue samples were collected.

[2] = BAL-1480 monotherapy 1 g/L, both combination groups, vs tirzepatide monotherapy

| Molecule | Fatty liver weight and fat tissue weights at terminal harvest (Diet-Induced Obese Mice; BAL-1480 1 g/L and combination groups vs tirzepatide monotherapy) | Muscle to body weight percentages at terminal harvest (Diet-Induced Obese Mice; BAL-1480 1 g/L and combination groups, to similar level as lean control mice) | Fat mass percentage (Diet-Induced Obese Mice; [2]) | Lean mass percentage (Diet-Induced Obese Mice; [2]) | Lean/fat ratio (Diet-Induced Obese Mice; [2]) | Absolute fat mass (Diet-Induced Obese Mice; BAL-1480 monotherapy 1 g/L, combinations tirzepatide 10 nmol/kg + BAL-1480 0.25 or 1 g/L, vs tirzepatide monotherapy) | Weight loss (Diet-Induced Obese Mice; obese mice, BAL-1480 0.25 and 1 g/L in drinking water) | Muscle function, grid hang test (latency before mice fell from the grid) ([1]; semaglutide 100 nmol/kg, BGE-105 1.1 mg/mL, combination compared to either agent alone) | Weight of perigonadal fat at study endpoint ([1]; semaglutide 100 nmol/kg, BGE-105 1.1 mg/mL, combination loss statistically significant) | Quadriceps weight as a percentage of total body weight at study endpoint ([1]; semaglutide 100 nmol/kg, BGE-105 1.1 mg/mL, vs DIO control mice) | neutrophil gelatinase-associated lipocalin (NGAL) level at study endpoint ([1]; vs DIO control mice) |
| --- | --- | --- | --- | --- | --- | --- | --- | --- | --- | --- | --- |
| COc1cccc(OC)c1-c1cc(C(=O)N[C@@H](CCN2CCCCC2)CC(=O)NC2CCC2)nn1C1CCCC1 [BAL-1480] | reduced the fatty liver weight and fat tissue weights | dramatically increased the muscle to body weight percentages | significant decrease of fat mass percentage | significant increase of lean mass percentage | significant increase of lean/fat ratio | significant reduction of absolute fat mass | dose-dependent effect on weight loss | – | – | – | – |
| semaglutide [reference compound] | – | – | – | – | – | – | – | increased muscle function | statistically insignificant loss in perigonadal fat | increased quadricep weight as a percentage of total body weight, but the increases did not achieve statistical significance | decreased plasma NGAL level |
